Laboratory results published in ChEMBL document CHEMBL3580536, “N-(3-Ethynyl-2,4-difluorophenyl)sulfonamide Derivatives as Selective Raf Inhibitors” (ACS Med Chem Lett, 2015).

molecular target: Serine/threonine-protein kinase B-raf (Homo sapiens, UniProt P15056, V600E); conditions: not given
Sequence (P15056 2-766 V600E limits assumed): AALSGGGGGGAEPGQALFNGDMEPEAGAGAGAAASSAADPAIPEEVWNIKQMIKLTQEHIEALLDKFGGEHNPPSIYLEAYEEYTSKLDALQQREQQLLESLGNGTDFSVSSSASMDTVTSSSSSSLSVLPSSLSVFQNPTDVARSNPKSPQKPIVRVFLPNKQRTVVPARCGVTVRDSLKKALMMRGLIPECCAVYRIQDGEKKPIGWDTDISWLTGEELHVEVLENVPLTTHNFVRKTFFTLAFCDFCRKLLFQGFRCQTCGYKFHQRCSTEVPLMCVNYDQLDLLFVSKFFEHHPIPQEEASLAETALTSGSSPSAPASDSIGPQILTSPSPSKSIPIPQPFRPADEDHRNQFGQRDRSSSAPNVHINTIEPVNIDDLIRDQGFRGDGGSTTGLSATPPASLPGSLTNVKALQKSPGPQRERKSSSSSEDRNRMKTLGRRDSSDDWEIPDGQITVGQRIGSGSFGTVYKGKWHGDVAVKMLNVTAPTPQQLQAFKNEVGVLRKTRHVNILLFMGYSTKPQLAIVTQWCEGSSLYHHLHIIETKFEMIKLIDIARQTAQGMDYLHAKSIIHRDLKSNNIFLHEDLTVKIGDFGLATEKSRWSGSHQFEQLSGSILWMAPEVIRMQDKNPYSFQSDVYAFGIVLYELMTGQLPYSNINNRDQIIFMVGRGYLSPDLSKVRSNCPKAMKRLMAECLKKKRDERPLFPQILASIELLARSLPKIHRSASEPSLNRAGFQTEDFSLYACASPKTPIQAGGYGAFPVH

Compound	IC50
O=S(=O)(Nc1ccc(F)c(C#Cc2cnc3[nH]ncc3c2)c1F)c1cccnc1	51 nM
O=S(=O)(Nc1ccc(F)c(C#Cc2cnc3[nH]ncc3c2)c1F)c1cccc(F)c1	68 nM
CCOc1n[nH]c2ncc(C#Cc3c(F)ccc(NS(=O)(=O)c4cccnc4)c3F)cc12	122 nM
O=S(=O)(Nc1ccc(F)c(C#Cc2cnc3ccnn3c2)c1F)c1cccnc1	533 nM
O=S(=O)(Nc1ccc(F)c(C#Cc2cnc3[nH]nc(-c4ccccc4Cl)c3c2)c1F)c1cccnc1	131 nM
O=S(=O)(Nc1ccc(F)c(C#Cc2cnc3[nH]nc(-c4ccc(Cl)cc4)c3c2)c1F)c1cccnc1	21 nM
O=S(=O)(Nc1ccc(F)c(C#Cc2cnc3[nH]ncc3c2)c1F)c1ccccc1	149 nM
O=S(=O)(Nc1ccc(F)c(C#Cc2ccc3[nH]ncc3c2)c1F)c1cccnc1	4310 nM
O=S(=O)(Nc1ccc(F)c(C#Cc2cnc3[nH]ncc3c2)c1F)c1ccc(F)cc1	917 nM
O=S(=O)(Nc1ccc(F)c(C#Cc2cnc3[nH]nc(C4CC4)c3c2)c1F)c1cccnc1	10 nM

tested on: HCT-116; assay: Antiproliferative activity against human HCT116 cells expressing wild type B-Raf incubated for 68 hrs by MTT assay; format: functional, cell-based; conditions: HCT-116, 68 h

Compound	IC50
O=S(=O)(Nc1ccc(F)c(C#Cc2cnc3[nH]ncc3c2)c1F)c1cccnc1	> 10 µM
O=S(=O)(Nc1ccc(F)c(C#Cc2cnc3[nH]ncc3c2)c1F)c1cccc(F)c1	> 10 µM
CCOc1n[nH]c2ncc(C#Cc3c(F)ccc(NS(=O)(=O)c4cccnc4)c3F)cc12	10 µM
O=S(=O)(Nc1ccc(F)c(C#Cc2cnc3ccnn3c2)c1F)c1cccnc1	10 µM
O=S(=O)(Nc1ccc(F)c(C#Cc2cnc3[nH]nc(-c4ccccc4Cl)c3c2)c1F)c1cccnc1	> 10 µM
O=S(=O)(Nc1ccc(F)c(C#Cc2cnc3[nH]nc(-c4ccc(Cl)cc4)c3c2)c1F)c1cccnc1	> 10 µM
O=S(=O)(Nc1ccc(F)c(C#Cc2cnc3[nH]ncc3c2)c1F)c1ccccc1	> 10 µM
O=S(=O)(Nc1ccc(F)c(C#Cc2ccc3[nH]ncc3c2)c1F)c1cccnc1	> 10 µM
O=S(=O)(Nc1ccc(F)c(C#Cc2cnc3[nH]ncc3c2)c1F)c1ccc(F)cc1	> 10 µM
O=S(=O)(Nc1ccc(F)c(C#Cc2cnc3[nH]nc(C4CC4)c3c2)c1F)c1cccnc1	0.584 µM

tested on: not listed separately; assay: Antiproliferative activity against human COLO205 cells expressing B-Raf V600E mutant incubated for 68 hrs by MTT assay; format: functional, cell-based; conditions: COLO 205, 68 h

Compound	IC50
O=S(=O)(Nc1ccc(F)c(C#Cc2cnc3[nH]ncc3c2)c1F)c1cccnc1	445 nM
O=S(=O)(Nc1ccc(F)c(C#Cc2cnc3[nH]ncc3c2)c1F)c1cccc(F)c1	758 nM
CCOc1n[nH]c2ncc(C#Cc3c(F)ccc(NS(=O)(=O)c4cccnc4)c3F)cc12	1980 nM
O=S(=O)(Nc1ccc(F)c(C#Cc2cnc3ccnn3c2)c1F)c1cccnc1	1840 nM
O=S(=O)(Nc1ccc(F)c(C#Cc2cnc3[nH]nc(-c4ccccc4Cl)c3c2)c1F)c1cccnc1	3600 nM
O=S(=O)(Nc1ccc(F)c(C#Cc2cnc3[nH]nc(-c4ccc(Cl)cc4)c3c2)c1F)c1cccnc1	318 nM
O=S(=O)(Nc1ccc(F)c(C#Cc2cnc3[nH]ncc3c2)c1F)c1ccccc1	2100 nM
O=S(=O)(Nc1ccc(F)c(C#Cc2ccc3[nH]ncc3c2)c1F)c1cccnc1	> 10000 nM
O=S(=O)(Nc1ccc(F)c(C#Cc2cnc3[nH]ncc3c2)c1F)c1ccc(F)cc1	6780 nM
O=S(=O)(Nc1ccc(F)c(C#Cc2cnc3[nH]nc(C4CC4)c3c2)c1F)c1cccnc1	61 nM
